Data: ChEMBL document CHEMBL3797099, “Re-exploration of the mGlu₁ PAM Ro 07-11401 scaffold: Discovery of analogs with improved CNS penetration despite steep SAR” (Bioorg Med Chem Lett, 2016)

Assays:
[1] = molecular target: T1, Metabotropic glutamate receptor 1 (Homo sapiens, UniProt Q13255); assay: Positive allosteric modulation of human mGlu1 receptor assessed as increase in glutamate-induced calcium mobilization; type: functional
Target sequence in this assay (Q13255 whole entry): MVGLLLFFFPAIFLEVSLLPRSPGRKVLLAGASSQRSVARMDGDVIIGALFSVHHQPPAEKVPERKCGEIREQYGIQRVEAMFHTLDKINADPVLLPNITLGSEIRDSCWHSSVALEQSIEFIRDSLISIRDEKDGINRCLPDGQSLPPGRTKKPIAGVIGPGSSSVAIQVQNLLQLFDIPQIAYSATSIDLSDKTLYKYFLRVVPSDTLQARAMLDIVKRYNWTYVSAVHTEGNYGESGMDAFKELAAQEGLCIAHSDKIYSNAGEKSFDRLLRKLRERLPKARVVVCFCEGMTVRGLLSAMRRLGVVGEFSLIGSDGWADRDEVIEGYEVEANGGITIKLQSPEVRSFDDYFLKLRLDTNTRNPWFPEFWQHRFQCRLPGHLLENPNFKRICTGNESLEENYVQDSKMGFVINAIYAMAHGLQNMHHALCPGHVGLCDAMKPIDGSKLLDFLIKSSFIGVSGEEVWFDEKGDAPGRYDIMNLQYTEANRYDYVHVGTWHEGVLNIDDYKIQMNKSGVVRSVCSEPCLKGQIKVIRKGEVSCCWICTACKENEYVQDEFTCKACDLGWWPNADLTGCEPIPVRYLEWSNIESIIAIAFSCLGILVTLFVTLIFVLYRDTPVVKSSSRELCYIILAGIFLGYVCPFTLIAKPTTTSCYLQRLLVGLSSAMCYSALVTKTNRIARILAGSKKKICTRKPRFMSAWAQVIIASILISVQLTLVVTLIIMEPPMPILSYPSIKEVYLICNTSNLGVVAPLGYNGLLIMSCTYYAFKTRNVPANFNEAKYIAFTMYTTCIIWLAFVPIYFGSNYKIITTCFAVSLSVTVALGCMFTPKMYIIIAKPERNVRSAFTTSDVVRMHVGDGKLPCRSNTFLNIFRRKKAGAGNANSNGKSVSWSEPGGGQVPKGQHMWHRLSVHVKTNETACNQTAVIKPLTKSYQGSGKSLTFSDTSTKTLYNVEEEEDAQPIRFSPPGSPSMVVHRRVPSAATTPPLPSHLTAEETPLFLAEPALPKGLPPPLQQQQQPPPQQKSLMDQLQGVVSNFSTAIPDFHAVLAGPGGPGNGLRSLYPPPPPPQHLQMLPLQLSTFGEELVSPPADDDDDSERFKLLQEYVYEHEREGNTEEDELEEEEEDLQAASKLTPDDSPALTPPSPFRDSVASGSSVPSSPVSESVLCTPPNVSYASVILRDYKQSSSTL

[2] = molecular target: Cytochrome P450 2C9 (Homo sapiens, UniProt P11712); assay: Inhibition of CYP2C9 (unknown origin); type: ADME
[3] = Ratio of drug level in brain to plasma in rat at 0.25 mg/kg, iv; type: ADME, organism-based
[4] = test system: Plasma; assay: Plasma concentration in rat at 0.25 mg/kg, iv measured at the last time point; type: ADME, organism-based; conditions: in vivo
[5] = test system: Brain; assay: Fraction unbound in rat brain homogenate; type: ADME, tissue-based
[6] = molecular target: Cytochrome P450 3A4 (Homo sapiens, UniProt P08684); assay: Inhibition of CYP3A4 (unknown origin); type: ADME
Sequence of Cytochrome P450 3A4 (P08684 whole entry): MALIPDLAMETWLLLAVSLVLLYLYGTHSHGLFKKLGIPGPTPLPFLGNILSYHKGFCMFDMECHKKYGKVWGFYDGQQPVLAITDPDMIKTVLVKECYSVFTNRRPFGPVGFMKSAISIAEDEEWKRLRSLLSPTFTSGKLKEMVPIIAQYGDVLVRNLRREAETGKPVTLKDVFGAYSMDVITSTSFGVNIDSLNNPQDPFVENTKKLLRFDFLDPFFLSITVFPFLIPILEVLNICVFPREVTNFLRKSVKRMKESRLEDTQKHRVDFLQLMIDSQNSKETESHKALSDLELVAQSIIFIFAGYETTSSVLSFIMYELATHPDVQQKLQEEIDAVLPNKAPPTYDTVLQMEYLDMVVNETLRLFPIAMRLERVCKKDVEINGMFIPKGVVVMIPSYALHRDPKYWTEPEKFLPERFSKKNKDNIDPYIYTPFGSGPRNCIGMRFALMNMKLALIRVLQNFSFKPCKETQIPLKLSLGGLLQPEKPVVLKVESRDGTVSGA

[7] = test system: Plasma; assay: Fraction unbound in rat plasma; type: ADME, cell-free
[8] = molecular target: Metabotropic glutamate receptor 1 (Rattus norvegicus) (UniProt P23385); assay: Positive allosteric modulation of rat mGlu1 receptor assessed as increase in glutamate-induced calcium mobilization relative to glutamate; type: functional
Sequence of Metabotropic glutamate receptor 1 (Rattus norvegicus) (P23385 19-1199 limits assumed): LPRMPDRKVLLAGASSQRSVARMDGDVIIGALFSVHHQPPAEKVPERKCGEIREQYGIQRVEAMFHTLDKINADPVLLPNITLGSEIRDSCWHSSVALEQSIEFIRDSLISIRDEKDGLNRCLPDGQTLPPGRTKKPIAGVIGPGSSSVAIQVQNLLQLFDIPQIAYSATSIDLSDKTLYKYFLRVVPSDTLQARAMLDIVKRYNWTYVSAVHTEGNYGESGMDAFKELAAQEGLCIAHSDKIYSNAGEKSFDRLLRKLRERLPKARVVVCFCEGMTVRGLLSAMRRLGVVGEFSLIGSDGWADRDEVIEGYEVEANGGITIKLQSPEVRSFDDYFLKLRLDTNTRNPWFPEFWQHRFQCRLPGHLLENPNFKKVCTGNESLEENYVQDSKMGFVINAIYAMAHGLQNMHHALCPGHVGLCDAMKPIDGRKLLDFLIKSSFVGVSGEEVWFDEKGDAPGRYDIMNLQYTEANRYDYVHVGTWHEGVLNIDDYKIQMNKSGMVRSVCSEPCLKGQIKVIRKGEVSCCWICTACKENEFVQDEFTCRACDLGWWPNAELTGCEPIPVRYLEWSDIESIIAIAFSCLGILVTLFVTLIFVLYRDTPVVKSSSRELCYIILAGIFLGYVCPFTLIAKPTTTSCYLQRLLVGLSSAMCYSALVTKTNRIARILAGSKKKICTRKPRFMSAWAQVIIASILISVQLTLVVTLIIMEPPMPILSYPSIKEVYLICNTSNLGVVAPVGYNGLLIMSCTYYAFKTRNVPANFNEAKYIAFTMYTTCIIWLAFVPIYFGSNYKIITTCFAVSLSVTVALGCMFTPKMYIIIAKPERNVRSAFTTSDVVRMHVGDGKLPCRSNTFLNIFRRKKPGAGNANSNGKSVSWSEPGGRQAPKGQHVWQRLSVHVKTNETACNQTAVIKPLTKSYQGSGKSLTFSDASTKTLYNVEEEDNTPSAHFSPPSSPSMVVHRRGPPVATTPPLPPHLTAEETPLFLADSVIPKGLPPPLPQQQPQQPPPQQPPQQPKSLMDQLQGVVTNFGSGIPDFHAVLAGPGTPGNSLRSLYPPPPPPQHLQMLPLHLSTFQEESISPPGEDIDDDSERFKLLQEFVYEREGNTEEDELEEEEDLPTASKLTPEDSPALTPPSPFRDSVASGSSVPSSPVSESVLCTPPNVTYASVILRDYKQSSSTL

[9] = test system: Brain; assay: Drug uptake in rat brain at 0.25 mg/kg, iv measured at the last time point; type: ADME, organism-based; conditions: in vivo
[10] = molecular target: Metabotropic glutamate receptor 1 (Rattus norvegicus, UniProt P23385); assay: Positive allosteric modulation of rat mGlu1 receptor assessed as increase in glutamate-induced calcium mobilization; type: functional
Sequence of Metabotropic glutamate receptor 1 (Rattus norvegicus, UniProt P23385) (P23385 whole entry): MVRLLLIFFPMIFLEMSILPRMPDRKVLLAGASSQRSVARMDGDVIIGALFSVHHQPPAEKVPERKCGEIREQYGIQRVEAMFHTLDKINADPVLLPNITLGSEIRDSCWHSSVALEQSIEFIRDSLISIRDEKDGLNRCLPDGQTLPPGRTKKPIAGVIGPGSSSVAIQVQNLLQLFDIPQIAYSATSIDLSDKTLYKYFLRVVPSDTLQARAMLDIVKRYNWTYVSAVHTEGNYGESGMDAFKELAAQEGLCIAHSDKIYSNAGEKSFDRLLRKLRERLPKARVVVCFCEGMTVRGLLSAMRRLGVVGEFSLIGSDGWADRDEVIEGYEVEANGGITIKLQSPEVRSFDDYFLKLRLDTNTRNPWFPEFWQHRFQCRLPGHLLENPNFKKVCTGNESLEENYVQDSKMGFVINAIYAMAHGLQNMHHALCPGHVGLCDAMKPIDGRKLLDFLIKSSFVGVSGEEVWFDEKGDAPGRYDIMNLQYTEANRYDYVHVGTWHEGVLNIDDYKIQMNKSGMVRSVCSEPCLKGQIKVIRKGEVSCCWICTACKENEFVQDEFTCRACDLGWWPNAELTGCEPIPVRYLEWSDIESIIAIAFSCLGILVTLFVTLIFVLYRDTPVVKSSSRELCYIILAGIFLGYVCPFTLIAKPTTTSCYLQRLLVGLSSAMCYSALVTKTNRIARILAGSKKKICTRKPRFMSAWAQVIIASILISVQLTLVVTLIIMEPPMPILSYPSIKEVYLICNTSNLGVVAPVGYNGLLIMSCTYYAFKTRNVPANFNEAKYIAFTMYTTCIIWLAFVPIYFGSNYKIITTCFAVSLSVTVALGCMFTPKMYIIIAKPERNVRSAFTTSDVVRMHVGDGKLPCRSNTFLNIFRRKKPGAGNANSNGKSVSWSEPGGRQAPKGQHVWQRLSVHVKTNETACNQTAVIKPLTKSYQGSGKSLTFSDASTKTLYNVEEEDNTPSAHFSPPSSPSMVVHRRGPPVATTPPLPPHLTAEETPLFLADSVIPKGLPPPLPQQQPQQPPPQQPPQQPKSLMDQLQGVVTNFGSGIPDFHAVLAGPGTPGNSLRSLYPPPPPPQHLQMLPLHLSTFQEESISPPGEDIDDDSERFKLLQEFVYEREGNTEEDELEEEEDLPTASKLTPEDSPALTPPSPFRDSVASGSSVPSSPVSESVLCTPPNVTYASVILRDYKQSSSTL

[11] = molecular target: T1, Metabotropic glutamate receptor 1; assay: Positive allosteric modulation of human mGlu1 receptor assessed as glutamate efficacy at 10 uM (reference value: 95.2 +/- 3.5 %)
[12] = molecular target: Cytochrome P450 2D6 (Homo sapiens, UniProt P10635); assay: Inhibition of CYP2D6 (unknown origin); type: ADME
Sequence of Cytochrome P450 2D6 (P10635 whole entry): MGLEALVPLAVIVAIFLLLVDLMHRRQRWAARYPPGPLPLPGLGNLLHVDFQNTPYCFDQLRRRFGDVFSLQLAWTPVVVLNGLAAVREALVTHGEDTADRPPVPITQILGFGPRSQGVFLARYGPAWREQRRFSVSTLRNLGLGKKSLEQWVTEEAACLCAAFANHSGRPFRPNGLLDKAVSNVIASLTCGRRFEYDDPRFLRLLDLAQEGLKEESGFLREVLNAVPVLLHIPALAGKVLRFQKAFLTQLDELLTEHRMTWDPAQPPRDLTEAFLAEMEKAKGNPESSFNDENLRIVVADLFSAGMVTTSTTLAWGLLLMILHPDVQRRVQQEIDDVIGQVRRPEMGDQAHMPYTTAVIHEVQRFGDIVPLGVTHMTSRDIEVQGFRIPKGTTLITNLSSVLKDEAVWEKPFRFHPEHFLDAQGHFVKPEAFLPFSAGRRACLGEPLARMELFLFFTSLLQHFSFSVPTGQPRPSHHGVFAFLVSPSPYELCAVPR

[13] = Intrinsic clearance in human liver microsomes; type: ADME; conditions: read-out: CLH
[14] = molecular target: T2, Cytochrome P450 1A2 (Homo sapiens, UniProt P05177); assay: Inhibition of CYP1A2 (unknown origin); type: ADME
T2 sequence (P05177 whole entry): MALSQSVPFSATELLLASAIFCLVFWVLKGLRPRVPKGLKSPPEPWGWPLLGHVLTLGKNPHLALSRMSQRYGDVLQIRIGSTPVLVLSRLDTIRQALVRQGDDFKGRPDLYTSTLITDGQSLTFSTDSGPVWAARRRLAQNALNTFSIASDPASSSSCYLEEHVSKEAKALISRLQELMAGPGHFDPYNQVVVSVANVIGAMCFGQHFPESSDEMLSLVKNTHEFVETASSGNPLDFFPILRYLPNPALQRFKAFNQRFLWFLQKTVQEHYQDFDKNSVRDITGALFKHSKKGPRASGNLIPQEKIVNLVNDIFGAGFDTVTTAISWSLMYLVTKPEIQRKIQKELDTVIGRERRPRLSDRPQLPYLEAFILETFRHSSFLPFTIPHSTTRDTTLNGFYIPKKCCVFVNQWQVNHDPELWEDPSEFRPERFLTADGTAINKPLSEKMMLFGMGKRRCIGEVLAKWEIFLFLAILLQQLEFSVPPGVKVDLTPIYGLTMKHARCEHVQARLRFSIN

[15] = Fraction unbound in human plasma; type: ADME, cell-free
[16] = molecular target: T1, Metabotropic glutamate receptor 1; assay: Positive allosteric modulation of human mGlu1 receptor assessed as potentiation of glutamate-induced effect at 10 uM relative to control
[17] = molecular target: T1, Metabotropic glutamate receptor 1; assay: Positive allosteric modulation of human mGlu1 receptor assessed as increase in glutamate-induced calcium mobilization relative to glutamate; type: functional
[18] = molecular target: T1, Metabotropic glutamate receptor 1; assay: Positive allosteric modulation of human mGlu1 receptor expressed in wild type T-Rex 293 cells assessed as increase in glutamate-induced calcium mobilization incubated for 2 mins before glutamate stimulation for 2.2 mins; type: functional, cell-based
Target sequence in this assay (Q13255 whole entry): as the sequence (Q13255 whole entry) above

[19] = molecular target: T1, Metabotropic glutamate receptor 1; assay: Positive allosteric modulation of human mGlu1 receptor expressed in wild type T-Rex 293 cells assessed as increase in glutamate-induced calcium mobilization incubated for 2 mins before glutamate stimulation for 2.2 mins relative to glutamate; type: functional, cell-based

Row | Compound | EC50 ([1]; read-out: EC50) | Kp [3] | Cp [4] | Fu [5] | IC50 [6] | %max [8] | Drug uptake [9] | EC50 ([10]; read-out: EC50) | Efficacy [11] | IC50 [12] | fold change (FC) [16] | %max [17] | further results
1 | N#Cc1csc(NC(=O)C2c3ccccc3Oc3ccccc32)n1 | 710 nM | 1.19 | 80.2 ng/mL | 0.017 | > 30000 nM | 124% | 83.6 ng/g | 1800 nM | 115% | 10300 nM | 5.4 | 110% | EC50 ([1]; read-out: pEC50 (converted)): 724 nM; IC50 [2]: 2900 nM; Fu [7]: 0.005; CLint scaled [13]: 9.85 mL/min/kg; IC50 [14]: 2900 nM; Fu [15]: 0.027
2 | Cc1nc(NC(=O)C2c3ccccc3Oc3ccccc32)sc1C | > 10000 nM | – | – | – | – | – | – | – | – | – | – | 68% | pEC50 [1]: < 5
3 | Cc1nsc(NC(=O)C2c3ccccc3Oc3ccccc32)n1 | 2700 nM | – | – | – | – | – | – | – | – | – | – | 101% | –
4 | O=C(Nc1nc(C(F)(F)F)co1)C1c2ccccc2Oc2ccccc21 | – | 0.29 | 276 ng/mL | 0.001 | > 30000 nM | 109% | 81 ng/g | 276 nM | 109% | > 30000 nM | 6.9 | – | EC50 [18]: 246 nM; %max [19]: 96%
5 | O=C(Nc1cncs1)C1c2ccccc2Oc2ccccc21 | > 10000 nM | – | – | – | – | – | – | – | – | – | – | 54% | pEC50 [1]: < 5

More lines, in order of falling EC50 ([1]; read-out: EC50), values ahead:

Row | EC50 ([1]; read-out: EC50) | Kp [3] | Cp [4] | Fu [5] | IC50 [6] | %max [8] | Drug uptake [9] | EC50 ([10]; read-out: EC50) | Efficacy [11] | IC50 [12] | fold change (FC) [16] | %max [17] | Compound | further results
6 | 4800 nM | – | – | – | – | – | – | – | – | – | – | 96% | O=C(Nc1nc2ccccc2s1)C1c2ccccc2Oc2ccccc21 | –
7 | 1700 nM | – | – | – | – | – | – | – | – | – | – | 58% | O=C(Nc1ccccn1)C1c2ccccc2Oc2ccccc21 | –
8 | 1400 nM | – | – | – | – | 111% | – | 3600 nM | – | – | – | 75% | O=C(Nc1nccs1)C1c2ccccc2Oc2ccccc21 | EC50 ([10]; read-out: pEC50 (converted)): 3720 nM
9 | 900 nM | 1.01 | 77.8 ng/mL | 0.001 | > 30000 nM | 111% | 78.7 ng/g | 2400 nM | 115% | 26500 nM | 4.6 | 89% | CC(C)c1csc(NC(=O)C2c3ccccc3Oc3ccccc32)n1 | IC50 [2]: 2100 nM; Fu [7]: 0.002; CLint scaled [13]: 15.5 mL/min/kg; IC50 [14]: 19000 nM; Fu [15]: 0.001
